Assay results reported in PubChem BioAssay (NCI).
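The compound was tested at five concentrations on cells cultured in 96-well plates, with a 48-hour exposure period. The concentration for 50% growth inhibition is given as GI50. TGI is the concentration that stops growth completely.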

Tests used:
Assay in all cases: NCI-60 cell line screen, 48 h
[1] = system: UACC-62 melanoma
[2] = system: CAKI-1 renal
[3] = system: EKVX NSCLC
[4] = system: HCC-2998 colon
[5] = system: MALME-3M melanoma
[6] = system: T-47D breast
[7] = system: 786-0 renal
[8] = system: CCRF-CEM leukemia
[9] = system: SK-OV-3 ovarian
[10] = system: HOP-62 NSCLC
[11] = system: NCI-H522 lung
[12] = system: MOLT-4 leukemia
[13] = system: HT29 colon
[14] = system: NCI-H460 lung
[15] = system: DU-145 prostate
[16] = system: SNB-75 CNS
[17] = system: RPMI-8226 leukemia
[18] = system: OVCAR-4 ovarian
[19] = system: MDA-MB-231 breast
[20] = system: COLO 205 colon
[21] = system: UACC-257 melanoma
[22] = system: SF-268 CNS
[23] = system: OVCAR-5 ovarian
[24] = system: SK-MEL-2 melanoma
[25] = system: SK-MEL-28 melanoma
[26] = system: MDA-MB-435
[27] = system: HCT-15 colon
[28] = system: LOX IMVI melanoma
[29] = system: OVCAR-3 ovarian
[30] = system: HS 578T breast
[31] = system: NCI-H226 lung
[32] = system: A498 renal
[33] = system: HL-60(TB) leukemia
[34] = system: IGROV1 ovarian
[35] = system: M14 melanoma
[36] = system: TK-10 renal
[37] = system: SF-295 CNS
[38] = system: PC-3 prostate
[39] = system: K-562 leukemia
[40] = system: RXF 393 renal
[41] = system: ACHN renal
[42] = system: SW-620 colon
[43] = system: SNB-19 CNS
[44] = system: U251 CNS
[45] = system: NCI/ADR-RES ovarian
[46] = system: OVCAR-8 ovarian
[47] = system: HCT-116 colon
[48] = system: MCF7 breast
[49] = system: NCI-H23 lung
[50] = system: BT-549 breast
[51] = system: SK-MEL-5 melanoma
[52] = system: A549 NSCLC
[53] = system: SN12C renal
[54] = system: KM12 colon
[55] = system: HOP-92 NSCLC
[56] = system: UO-31 renal
[57] = system: SR leukemia
[58] = system: SF-539 CNS

SMILES: CNC1=C(Br)C(=O)C2=C(C1=O)C1C3=C(C(=O)C=CC3=O)C2c2ccccc21 (configuration not stated)
- GI50 [1]: 2.52 µM
- TGI [1]: 6.85 µM
- GI50 [2]: 6.14 µM
- TGI [2]: 13.9 µM
- GI50 [3]: 1.94 µM
- TGI [3]: 3.7 µM
- GI50 [4]: 3.74 µM
- TGI [4]: 11.4 µM
- GI50 [5]: 6.96 µM
- TGI [5]: 16.2 µM
- GI50 [6]: 2.9 µM
- TGI [6]: > 40.3 µM
- GI50 [7]: 2.12 µM
- TGI [7]: 4.57 µM
- GI50 [8]: 0.472 µM
- TGI [8]: > 100 µM
- GI50 [9]: 10.3 µM
- TGI [9]: > 55.2 µM
- GI50 [10]: 7.68 µM
- TGI [10]: 23.6 µM
- GI50 [11]: 6.7 µM
- TGI [11]: > 22.4 µM
- GI50 [12]: 0.473 µM
- GI50 [13]: 2.72 µM
- TGI [13]: > 100 µM
- GI50 [14]: 18.6 µM
- TGI [14]: > 85.7 µM
- GI50 [15]: 4.06 µM
- TGI [15]: 10.3 µM
- GI50 [16]: 3.88 µM
- TGI [16]: 24.5 µM
- TGI [17]: > 31.4 µM
- GI50 [18]: 1.76 µM
- TGI [18]: 4.93 µM
- GI50 [19]: 2.94 µM
- TGI [19]: 4.93 µM
- GI50 [20]: 4.07 µM
- TGI [20]: 35.4 µM
- GI50 [21]: 12.7 µM
- TGI [21]: > 100 µM
- GI50 [22]: 2.97 µM
- TGI [22]: > 29.4 µM
- GI50 [23]: 6.96 µM
- TGI [23]: 31.4 µM
- GI50 [24]: 11 µM
- TGI [24]: > 28.4 µM
- GI50 [25]: 3.39 µM
- TGI [25]: > 24.7 µM
- GI50 [26]: 6.59 µM
- TGI [26]: 14.7 µM
- GI50 [27]: 2.19 µM
- TGI [27]: 5.55 µM
- GI50 [28]: 1.74 µM
- TGI [28]: 4.42 µM
- GI50 [29]: 5.29 µM
- TGI [29]: 10.9 µM
- GI50 [30]: 12.7 µM
- TGI [30]: 70.3 µM
- GI50 [31]: 5.19 µM
- TGI [31]: 14.4 µM
- GI50 [32]: 24.9 µM
- TGI [32]: 40.7 µM
- GI50 [33]: 2.18 µM
- TGI [33]: > 100 µM
- GI50 [34]: 4.69 µM
- TGI [34]: 18 µM
- GI50 [35]: 1.98 µM
- TGI [35]: 11.5 µM
- GI50 [36]: 10.8 µM
- TGI [36]: 34.4 µM
- GI50 [37]: 19.2 µM
- TGI [37]: 45.8 µM
- GI50 [38]: 1.38 µM
- GI50 [39]: 2.65 µM
- TGI [39]: > 23.7 µM
- GI50 [40]: 2.57 µM
- TGI [40]: 4.72 µM
- GI50 [41]: 2.1 µM
- TGI [41]: 3.9 µM
- GI50 [42]: 2.79 µM
- TGI [42]: > 29.1 µM
- GI50 [43]: 14.4 µM
- TGI [43]: 67.4 µM
- GI50 [44]: 2.12 µM
- TGI [44]: 5.01 µM
- GI50 [45]: 4.68 µM
- TGI [45]: 13.4 µM
- GI50 [46]: 2.99 µM
- TGI [46]: 8.93 µM
- GI50 [47]: 1.44 µM
- TGI [47]: 2.86 µM
- GI50 [48]: 2.25 µM
- TGI [48]: 5.62 µM
- GI50 [49]: 5.76 µM
- TGI [49]: 25.9 µM
- GI50 [50]: 2.45 µM
- TGI [50]: 5.98 µM
- GI50 [51]: 5.52 µM
- TGI [51]: 18.6 µM
- GI50 [52]: 3.02 µM
- GI50 [53]: 1.65 µM
- TGI [53]: 3.21 µM
- GI50 [54]: 14.4 µM
- TGI [54]: 48.7 µM
- GI50 [55]: 1.91 µM
- TGI [55]: 4.19 µM
- GI50 [56]: 6.73 µM
- TGI [56]: 14.4 µM

SMILES: CCCCn1c(=O)c(/C=C/C(=O)/C=C/c2ccc(O)c(OC)c2)cc2ccc(Cl)cc21
- GI50 [1]: 1.48 µM
- TGI [1]: 3.24 µM
- GI50 [2]: 2.16 µM
- TGI [2]: 3.91 µM
- GI50 [3]: 2.18 µM
- TGI [3]: 4.58 µM
- GI50 [4]: 2.05 µM
- TGI [4]: 3.54 µM
- GI50 [5]: 2.14 µM
- TGI [5]: 4.92 µM
- GI50 [6]: 1.85 µM
- TGI [6]: 6.28 µM
- GI50 [7]: 1.77 µM
- TGI [7]: 3.31 µM
- GI50 [8]: 2.79 µM
- TGI [8]: 22 µM
- GI50 [9]: 3.82 µM
- TGI [9]: 14.2 µM
- GI50 [10]: 1.81 µM
- TGI [10]: 4.17 µM
- GI50 [11]: 1.78 µM
- TGI [11]: 3.86 µM
- GI50 [12]: 2.17 µM
- TGI [12]: 16.3 µM
- GI50 [13]: 0.846 µM
- TGI [13]: 2.57 µM
- GI50 [14]: 1.96 µM
- TGI [14]: 4.17 µM
- GI50 [15]: 1.79 µM
- TGI [15]: 3.92 µM
- GI50 [16]: 2.26 µM
- TGI [16]: 6.22 µM
- GI50 [17]: 2.46 µM
- TGI [17]: 7.62 µM
- GI50 [18]: 2.34 µM
- TGI [18]: 9.81 µM
- GI50 [19]: 2.51 µM
- TGI [19]: 7.73 µM
- GI50 [20]: 1.72 µM
- TGI [20]: 4.83 µM
- GI50 [21]: 1.41 µM
- TGI [21]: 3.31 µM
- GI50 [22]: 1.96 µM
- TGI [22]: 5.43 µM
- GI50 [23]: 2.57 µM
- TGI [23]: 4.89 µM
- GI50 [24]: 2.67 µM
- TGI [24]: 6.32 µM
- GI50 [25]: 1.93 µM
- TGI [25]: 4.12 µM
- GI50 [26]: 1.77 µM
- TGI [26]: 4.17 µM
- GI50 [27]: 1.9 µM
- TGI [27]: 5.94 µM
- GI50 [28]: 1.51 µM
- TGI [28]: 2.84 µM
- GI50 [29]: 1.7 µM
- TGI [29]: 3.24 µM
- GI50 [30]: 3.18 µM
- TGI [30]: 14.8 µM
- GI50 [31]: 1.77 µM
- TGI [31]: 4.23 µM
- GI50 [33]: 2.34 µM
- TGI [33]: 13.4 µM
- GI50 [34]: 1.92 µM
- TGI [34]: 4.1 µM
- GI50 [35]: 1.86 µM
- TGI [35]: 4.17 µM
- GI50 [36]: 2.51 µM
- TGI [36]: 5.47 µM
- GI50 [37]: 2.75 µM
- TGI [37]: 10.3 µM
- GI50 [57]: 2.04 µM
- TGI [57]: 17.6 µM
- GI50 [38]: 1.89 µM
- TGI [38]: 4.71 µM
- GI50 [39]: 2.82 µM
- TGI [39]: 12.8 µM
- GI50 [40]: 1.66 µM
- TGI [40]: 3.25 µM
- GI50 [41]: 1.6 µM
- TGI [41]: 2.95 µM
- GI50 [42]: 2.05 µM
- TGI [42]: 4.37 µM
- GI50 [43]: 1.62 µM
- TGI [43]: 3.3 µM
- GI50 [44]: 1.59 µM
- TGI [44]: 3.08 µM
- GI50 [45]: 2.9 µM
- TGI [45]: 10.7 µM
- GI50 [46]: 2.47 µM
- TGI [46]: 9.49 µM
- GI50 [47]: 1.52 µM
- TGI [47]: 3 µM
- GI50 [48]: 1.88 µM
- TGI [48]: 10.8 µM
- GI50 [49]: 2.06 µM
- TGI [49]: 4.98 µM
- GI50 [50]: 1.76 µM
- TGI [50]: 4.25 µM
- GI50 [51]: 1.69 µM
- TGI [51]: 3.09 µM
- GI50 [52]: 1.72 µM
- TGI [52]: 4.84 µM
- GI50 [53]: 1.91 µM
- TGI [53]: 4.17 µM
- GI50 [58]: 1.62 µM
- TGI [58]: 3.18 µM
- GI50 [54]: 1.89 µM
- TGI [54]: 3.66 µM
- GI50 [55]: 1.75 µM
- TGI [55]: 4.19 µM
- GI50 [56]: 1.59 µM
- TGI [56]: 2.93 µM
